# Measured values reported in BindingDB's records for doi:10.1021/jm0613469 (Uppsala University, 2007).
# Residues, ends and D or L forms follow the SMILES beside them.
# Target: Type-2 angiotensin II receptor (Sus scrofa)
# Test: Displacement of [125I]Ang2 from AT2 receptor in pig uterus myometrial membrane
row,SMILES,Ki [µM]
1,"CC[C@@H](C)[C@H](NC(=O)c1cccc(Cn2ccnc2)c1)C(=O)O [(2S,3R)-2-(3-((1H-imidazol-1-yl)methyl)benzamido)-3-methylpentanoic acid]",0.0166
2,"CC[C@@H](C)[C@H](NC(=O)[C@@H]1CCCN1C(=O)c1cccc(Cn2ccnc2)c1)C(=O)O [(2S,3R)-2-((S)-1-(3-((1H-imidazol-1-yl)methyl)benzoyl)pyrrolidine-2-carboxamido)-3-methylpentanoic acid]",> 10
3,"CC[C@@H](C)[C@H](NC(=O)[C@@H]1CCCN1C(=O)c1cccc(Cc2cnc[nH]2)c1)C(=O)O [(2S,3R)-2-((S)-1-(3-((1H-imidazol-5-yl)methyl)benzoyl)pyrrolidine-2-carboxamido)-3-methylpentanoic acid]",> 10
4,"CC[C@H](C)[C@H](NC(=O)[C@@H]1CCCN1C(=O)[C@@H](N)Cc1cnc[nH]1)C(=O)O [(2S,3R)-2-((S)-1-((S)-2-amino-3-(1H-imidazol-5-yl)propanoyl)pyrrolidine-2-carboxamido)-3-methylpentanoic acid] (H-His-Pro-Ile-OH)",> 10

# Continued, values first:
row,Ki [µM],SMILES
1,0.0375,O=C(N[C@@H](Cc1ccccc1)C(=O)O)c1cccc(Cn2ccnc2)c1 [(S)-2-(3-((1H-imidazol-1-yl)methyl)benzamido)-3-phenylpropanoic acid]
2,> 10,O=C(O)[C@H](Cc1ccccc1)NC(=O)[C@@H]1CCCN1C(=O)c1cccc(Cn2ccnc2)c1 [(S)-2-((S)-1-(3-((1H-imidazol-1-yl)methyl)benzoyl)pyrrolidine-2-carboxamido)-3-phenylpropanoic acid]
3,> 10,O=C(O)[C@H](Cc1ccccc1)NC(=O)[C@@H]1CCCN1C(=O)c1cccc(Cc2cnc[nH]2)c1 [(S)-2-((S)-1-(3-((1H-imidazol-5-yl)methyl)benzoyl)pyrrolidine-2-carboxamido)-3-phenylpropanoic acid]
4,> 10,CC(=O)N[C@@H](Cc1cnc[nH]1)C(=O)N1CCC[C@H]1C(=O)N[C@@H](Cc1ccccc1)C(=O)O [(S)-2-((S)-1-((S)-2-acetamido-3-(1H-imidazol-5-yl)propanoyl)pyrrolidine-2-carboxamido)-3-phenylpropanoic acid] (Ac-His-Pro-Phe-OH)
5,> 10,N[C@@H](Cc1cnc[nH]1)C(=O)N1CCC[C@H]1C(=O)N[C@@H](Cc1ccccc1)C(=O)O [(S)-2-((S)-1-((S)-2-amino-3-(1H-imidazol-5-yl)propanoyl)pyrrolidine-2-carboxamido)-3-phenylpropanoic acid] (H-His-Pro-Phe-OH)
